Measurements from patent US20170087188A1, “WNT INDUCED MOTILITY AND ENHANCED ENGRAFTMENT OF CELLS” (OTTAWA HOSPITAL RESEARCH INSTITUTE, priority 2014, published 2017).
Entries after “also recorded” stand apart in the source; their conditions may differ.

System: mouse primary myoblasts
Assay: Scratch migration assay, mouse primary myoblasts
Format: cell-based
Conditions: primary myoblasts; MDC at 50 μm
Description: Cellular polarization is indicative of increased motility (de Forges et al., 2012). Scratch assays were used to test whether Wnt7a and Fzd7 polarization affect cell motility. To exclude effects on the localization of cells arising from altered rates of proliferation, cells were treated with Mitomycin-C.
Fzd7 deficient cells migrated 59% less compared to heterozygous myoblasts and expression of Fzd7-Flag in Fzd7 knockout myoblasts restored migration to normal levels (FIG. 2D). […] To investigate whether the stimulation of myoblast migration is dose dependent, different concentrations of Wnt7a and Wnt3a were tested for their effect on migration.
Following plasmid transfection or application of Wnts (R&D Systems), the cells were treated with Mitomycin-C for 2 h (50 μg/mL). Subsequently, the monolayer of cells was scraped in a straight line. The plates were then extensively washed with culture medium and incubated for 24 h before analysis. Analysis was performed using DAPI staining after matching the reference points and enumeration of DAPI-stained nuclei in the scar was performed. Unless otherwise indicated, Wnt7a and Wnt3a were used at a concentration of 100 ng/mL in scratch assays. Monodansylcadaverine (MDC, 30432, Sigma) was used in scratch assays at a concentration of 50 μm.

CN(C)c1cccc2c(S(=O)(=O)NCCCCCN)cccc12 [monodansylcadaverine, reference compound]
effect on Wnt7a mediated migration in scratch assays: prevents Wnt7a induced migration; also recorded: prevented Wnt7a mediated migration
